# US20250163104A1, “MACROCYCLIC IMMUNOMODULATORS” (priority 2021, published 2025)
# Where a SMILES comes first, the peptide text is derived from it. Bridges are numbered along the chain shown (N, C = ends). [ ]: non-standard residue; d: D form. The star is where a group is joined. Phe(4-COOH) = N[C@@H](Cc1ccc(C(=O)O)cc1)C(=O)O; Bip = N[C@@H](Cc1ccc(-c2ccccc2)cc1)C(=O)O; Phe(3-OMe) = COc1cccc(C[C@H](N)C(=O)O)c1; Phe(3-Me) = Cc1cccc(C[C@H](N)C(=O)O)c1; 4Pal = N[C@@H](Cc1ccncc1)C(=O)O; Cit = NC(=O)NCCC[C@H](N)C(=O)O; Carboxymethyl = O=C(O)C*; Nle = CCCC[C@H](N)C(=O)O; Orn = NCCC[C@H](N)C(=O)O; Dab = NCC[C@H](N)C(=O)O
# Molecular target: T1, human PD-1 / PD-L1-Ig binding on Jurkat cell line over-expressing human PD-1 (Jurkat-PD-1) (Homo sapiens, UniProt Q15116)
# T1 construct: expressed in transfected cells; host or cells: Jurkat
# T1 sequence (Q15116 25-288): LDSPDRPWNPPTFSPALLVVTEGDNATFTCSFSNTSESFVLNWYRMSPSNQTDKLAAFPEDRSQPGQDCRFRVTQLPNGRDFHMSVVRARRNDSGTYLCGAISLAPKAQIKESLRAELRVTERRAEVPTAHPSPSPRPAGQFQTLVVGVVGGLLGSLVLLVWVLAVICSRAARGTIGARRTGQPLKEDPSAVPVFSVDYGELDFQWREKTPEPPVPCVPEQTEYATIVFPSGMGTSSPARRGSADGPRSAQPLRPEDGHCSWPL
# Assay: Jurkat-PD-1 Cell Binding High-Content Screening Assay (CBA)
# Type: cell-based
# Settings: Jurkat HPD1_PDL1 IC50, Jurkat-PD-1 cells, PE-labeled PD-L1-Ig 20 nM final
# In short: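 Binding of fluorescent PD-L1-Ig (phycoerythrin linked via the Ig tag, 20 nM final) to PD-1-overexpressing Jurkat cells was imaged after a 2 h, 37° C compound pretreatment and 1 hour ligand incubation.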
row,SMILES,IC50 [nM]
1,CC[C@H](C)[C@@H]1NC(=O)[C@H](Cc2ccc(-c3ccccc3)cc2)NC(=O)[C@H](C(C)C)NC(=O)[C@H](Cc2cccc(C)c2)NC(=O)[C@H](CC(=O)O)NC(=O)[C@H](Cc2ccc(OCC(=O)O)cc2)NC(=O)[C@H](Cc2ccncc2)NC(=O)CSC[C@@H](C(=O)N[C@@H](C)C(N)=O)NC(=O)[C@H]([C@@H](C)O)NC(=O)[C@H](C(C)C)NC(=O)[C@H](CC(C)C)NC(=O)[C@H](CCN)NC(=O)[C@@H](CC(C)C)NC(=O)[C@H](CCCN)NC1=O [Compound 1186],5.8
2,CC[C@H](C)[C@@H]1NC(=O)[C@H](Cc2ccc(-c3ccccc3)cc2)NC(=O)[C@H](C(C)C)NC(=O)[C@H](Cc2cccc(OC)c2)NC(=O)[C@H](CC(=O)O)NC(=O)[C@H](Cc2ccc(OCC(=O)O)cc2)NC(=O)[C@H](Cc2ccncc2)NC(=O)CSC[C@@H](C(=O)N[C@@H](C)C(N)=O)NC(=O)[C@H]([C@@H](C)O)NC(=O)[C@H](C(C)C)NC(=O)[C@H](CC(C)C)NC(=O)[C@H](CCN)NC(=O)[C@@H](CC(C)C)NC(=O)[C@H](CCCN)NC1=O [Compound 1187],10.7

# Same assay, conditions: Jurkat-PD-1 cells, PE-labeled PD-L1-Ig 20 nM final; read-out: Jurkat HPD1_PDL1 IC50
row,SMILES,IC50 [nM]
1,Cc1cccc(C[C@@H]2NC(=O)[C@H](CC(=O)O)NC(=O)[C@H](Cc3ccc(OCC(=O)O)cc3)NC(=O)[C@H](Cc3ccncc3)NC(=O)CSC[C@@H](C(=O)N[C@@H](C)C(N)=O)NC(=O)[C@H]([C@@H](C)O)NC(=O)[C@H](C(C)C)NC(=O)[C@H](CC(C)C)NC(=O)[C@H](CCN)NC(=O)[C@@H](CC(C)C)NC(=O)[C@H](CCCN)NC(=O)[C@H](CCCNC(N)=O)NC(=O)[C@H](Cc3ccc(-c4ccccc4)cc3)NC(=O)[C@H](C(C)C)NC2=O)c1 [Compound 1184] ({CH2CO}-[4Pal]Y(Carboxymethyl)D[Phe(3-Me)]V[Bip][Cit][Orn][dL][Dab]LVTCA-NH2; thioether N-14),6.2
2,COc1cccc(C[C@@H]2NC(=O)[C@H](CC(=O)O)NC(=O)[C@H](Cc3ccc(OCC(=O)O)cc3)NC(=O)[C@H](Cc3ccncc3)NC(=O)CSC[C@@H](C(=O)N[C@@H](C)C(N)=O)NC(=O)[C@H]([C@@H](C)O)NC(=O)[C@H](C(C)C)NC(=O)[C@H](CC(C)C)NC(=O)[C@H](CCN)NC(=O)[C@@H](CC(C)C)NC(=O)[C@H](CCCN)NC(=O)[C@H](CCCNC(N)=O)NC(=O)[C@H](Cc3ccc(-c4ccccc4)cc3)NC(=O)[C@H](C(C)C)NC2=O)c1 [Compound 1185] ({CH2CO}-[4Pal]Y(Carboxymethyl)D[Phe(3-OMe)]V[Bip][Cit][Orn][dL][Dab]LVTCA-NH2; thioether N-14),7.4
3,COc1cccc(C[C@@H]2NC(=O)[C@H](CC(=O)O)NC(=O)[C@H](Cc3ccc(OCC(=O)O)cc3)NC(=O)[C@H](Cc3ccncc3)NC(=O)CSC[C@@H](C(=O)N[C@@H](C)C(N)=O)NC(=O)[C@H]([C@@H](C)O)NC(=O)[C@H](C(C)C)NC(=O)[C@H](CC(C)C)NC(=O)[C@H](CCN)NC(=O)[C@@H](CC(C)C)NC(=O)[C@H](CCCN)NC(=O)[C@H](C(C)C)NC(=O)[C@H](Cc3ccc(-c4ccccc4)cc3)NC(=O)[C@H](C(C)C)NC2=O)c1 [Compound 1188] ({CH2CO}-[4Pal]Y(Carboxymethyl)D[Phe(3-OMe)]V[Bip]V[Orn][dL][Dab]LVTCA-NH2; thioether N-14),7.9
4,CCCC[C@@H]1NC(=O)[C@H](CCN)NC(=O)[C@@H](CC(C)C)NC(=O)[C@H](CCCN)NC(=O)[C@H](CCCNC(N)=O)NC(=O)[C@H](Cc2ccc(-c3ccccc3)cc2)NC(=O)[C@H](C(C)C)NC(=O)[C@H](Cc2cccc(C)c2)NC(=O)[C@H](CC(=O)O)NC(=O)[C@H](Cc2ccc(C(=O)O)cc2)NC(=O)[C@H](Cc2ccncc2)NC(=O)CSC[C@@H](C(=O)N[C@@H](C)C(N)=O)NC(=O)[C@H]([C@@H](C)O)NC(=O)[C@H](C(C)C)NC1=O [Compound 1189] ({CH2CO}-[4Pal][Phe(4-COOH)]D[Phe(3-Me)]V[Bip][Cit][Orn][dL][Dab][Nle]VTCA-NH2; thioether N-14),17.7
5,Cc1cccc(C[C@@H]2NC(=O)[C@H](CC(=O)O)NC(=O)[C@H](Cc3ccc(C(=O)O)cc3)NC(=O)[C@H](Cc3ccncc3)NC(=O)CSC[C@@H](C(=O)N[C@@H](C)C(N)=O)NC(=O)[C@H]([C@@H](C)O)NC(=O)[C@H](C(C)C)NC(=O)[C@H](CC3CCCCC3)NC(=O)[C@H](CCN)NC(=O)[C@@H](CC(C)C)NC(=O)[C@H](CCCN)NC(=O)[C@H](CCCNC(N)=O)NC(=O)[C@H](Cc3ccc(-c4ccccc4)cc3)NC(=O)[C@H](C(C)C)NC2=O)c1 [Compound 1190],4.5
6,CCCC[C@@H]1NC(=O)[C@H](CCN)NC(=O)[C@@H](CC(C)C)NC(=O)[C@H](CCCN)NC(=O)[C@H]([C@@H](C)CC)NC(=O)[C@H](Cc2ccc(-c3ccccc3)cc2)NC(=O)[C@H](C(C)C)NC(=O)[C@H](Cc2cccc(C)c2)NC(=O)[C@H](CC(=O)O)NC(=O)[C@H](Cc2ccc(C(=O)O)cc2)NC(=O)[C@H](Cc2ccncc2)NC(=O)CSC[C@@H](C(=O)N[C@@H](C)C(N)=O)NC(=O)[C@H]([C@@H](C)O)NC(=O)[C@H](C(C)C)NC1=O [Compound 1191],10
7,CC[C@H](C)[C@@H]1NC(=O)[C@H](Cc2ccc(-c3ccccc3)cc2)NC(=O)[C@H](C(C)C)NC(=O)[C@H](Cc2cccc(C)c2)NC(=O)[C@H](CC(=O)O)NC(=O)[C@H](Cc2ccc(C(=O)O)cc2)NC(=O)[C@H](Cc2ccncc2)NC(=O)CSC[C@@H](C(=O)N[C@@H](C)C(N)=O)NC(=O)[C@H]([C@@H](C)O)NC(=O)[C@H](C(C)C)NC(=O)[C@H](CC2CCCCC2)NC(=O)[C@H](CCN)NC(=O)[C@@H](CC(C)C)NC(=O)[C@H](CCCN)NC1=O [Compound 1192],7.1
8,CCCC[C@@H]1NC(=O)[C@H](CCN)NC(=O)[C@@H](CC(C)C)NC(=O)[C@H](CCCN)NC(=O)[C@H](C(C)C)NC(=O)[C@H](Cc2ccc(-c3ccccc3)cc2)NC(=O)[C@H](C(C)C)NC(=O)[C@H](Cc2cccc(C)c2)NC(=O)[C@H](CC(=O)O)NC(=O)[C@H](Cc2ccc(C(=O)O)cc2)NC(=O)[C@H](Cc2ccncc2)NC(=O)CSC[C@@H](C(=O)N[C@@H](C)C(N)=O)NC(=O)[C@H]([C@@H](C)O)NC(=O)[C@H](C(C)C)NC1=O [Compound 1193] ({CH2CO}-[4Pal][Phe(4-COOH)]D[Phe(3-Me)]V[Bip]V[Orn][dL][Dab][Nle]VTCA-NH2; thioether N-14),7.7
9,Cc1cccc(C[C@@H]2NC(=O)[C@H](CC(=O)O)NC(=O)[C@H](Cc3ccc(C(=O)O)cc3)NC(=O)[C@H](Cc3ccncc3)NC(=O)CSC[C@@H](C(=O)N[C@@H](C)C(N)=O)NC(=O)[C@H]([C@@H](C)O)NC(=O)[C@H](C(C)C)NC(=O)[C@H](CC3CCCCC3)NC(=O)[C@H](CCN)NC(=O)[C@@H](CC(C)C)NC(=O)[C@H](CCCN)NC(=O)[C@H](C(C)C)NC(=O)[C@H](Cc3ccc(-c4ccccc4)cc3)NC(=O)[C@H](C(C)C)NC2=O)c1 [Compound 1194],4.7
10,CCCC[C@@H]1NC(=O)[C@H](CCN)NC(=O)[C@@H](CC(C)C)NC(=O)[C@H](CCCN)NC(=O)[C@H](CCCNC(N)=O)NC(=O)[C@H](Cc2ccc(-c3ccccc3)cc2)NC(=O)[C@H](C(C)C)NC(=O)[C@H](Cc2cccc(C)c2)NC(=O)[C@H](CC(=O)O)NC(=O)[C@H](Cc2ccc(OCC(=O)O)cc2)NC(=O)[C@H](Cc2ccncc2)NC(=O)CSC[C@@H](C(=O)N[C@@H](C)C(N)=O)NC(=O)[C@H]([C@@H](C)O)NC(=O)[C@H](C(C)C)NC1=O [Compound 1195] ({CH2CO}-[4Pal]Y(Carboxymethyl)D[Phe(3-Me)]V[Bip][Cit][Orn][dL][Dab][Nle]VTCA-NH2; thioether N-14),13.8
11,Cc1cccc(C[C@@H]2NC(=O)[C@H](CC(=O)O)NC(=O)[C@H](Cc3ccc(OCC(=O)O)cc3)NC(=O)[C@H](Cc3ccncc3)NC(=O)CSC[C@@H](C(=O)N[C@@H](C)C(N)=O)NC(=O)[C@H]([C@@H](C)O)NC(=O)[C@H](C(C)C)NC(=O)[C@H](CC3CCCCC3)NC(=O)[C@H](CCN)NC(=O)[C@@H](CC(C)C)NC(=O)[C@H](CCCN)NC(=O)[C@H](CCCNC(N)=O)NC(=O)[C@H](Cc3ccc(-c4ccccc4)cc3)NC(=O)[C@H](C(C)C)NC2=O)c1 [Compound 1196],8.2
12,CCCC[C@@H]1NC(=O)[C@H](CCN)NC(=O)[C@@H](CC(C)C)NC(=O)[C@H](CCCN)NC(=O)[C@H]([C@@H](C)CC)NC(=O)[C@H](Cc2ccc(-c3ccccc3)cc2)NC(=O)[C@H](C(C)C)NC(=O)[C@H](Cc2cccc(C)c2)NC(=O)[C@H](CC(=O)O)NC(=O)[C@H](Cc2ccc(OCC(=O)O)cc2)NC(=O)[C@H](Cc2ccncc2)NC(=O)CSC[C@@H](C(=O)N[C@@H](C)C(N)=O)NC(=O)[C@H]([C@@H](C)O)NC(=O)[C@H](C(C)C)NC1=O [Compound 1197],12
13,CC[C@H](C)[C@@H]1NC(=O)[C@H](Cc2ccc(-c3ccccc3)cc2)NC(=O)[C@H](C(C)C)NC(=O)[C@H](Cc2cccc(C)c2)NC(=O)[C@H](CC(=O)O)NC(=O)[C@H](Cc2ccc(OCC(=O)O)cc2)NC(=O)[C@H](Cc2ccncc2)NC(=O)CSC[C@@H](C(=O)N[C@@H](C)C(N)=O)NC(=O)[C@H]([C@@H](C)O)NC(=O)[C@H](C(C)C)NC(=O)[C@H](CC2CCCCC2)NC(=O)[C@H](CCN)NC(=O)[C@@H](CC(C)C)NC(=O)[C@H](CCCN)NC1=O [Compound 1198],15.6
14,CCCC[C@@H]1NC(=O)[C@H](CCN)NC(=O)[C@@H](CC(C)C)NC(=O)[C@H](CCCN)NC(=O)[C@H](C(C)C)NC(=O)[C@H](Cc2ccc(-c3ccccc3)cc2)NC(=O)[C@H](C(C)C)NC(=O)[C@H](Cc2cccc(C)c2)NC(=O)[C@H](CC(=O)O)NC(=O)[C@H](Cc2ccc(OCC(=O)O)cc2)NC(=O)[C@H](Cc2ccncc2)NC(=O)CSC[C@@H](C(=O)N[C@@H](C)C(N)=O)NC(=O)[C@H]([C@@H](C)O)NC(=O)[C@H](C(C)C)NC1=O [Compound 1199] ({CH2CO}-[4Pal]Y(Carboxymethyl)D[Phe(3-Me)]V[Bip]V[Orn][dL][Dab][Nle]VTCA-NH2; thioether N-14),4.1
